The values that follow come from patent US20230172929A1, “NOVEL PERIPHERAL CANNABINOID-1 RECEPTOR ANTAGONISTS” (Yissum Research Development Company of the Hebrew …, priority 2019, published 2023).

Data set [1] concerns the target T1, CB1R (Mus musculus, UniProt P47746).
T1 construct: crude membranes from mouse brain for CB1R; from tissue; host or cells: mouse brain, crude membranes
Kind of data set: Radioligand binding assay, competition displacement of [3H]CP-55,940, CB1R. As for the experimental part:
Radioligand binding assays: Binding to CB1R and CB2R was assessed in competition displacement assays using [3^H]CP-55,940 as the radioligand and crude membranes from mouse brain for CB1R or human cell membrane for CB2R, as reported previously. All data were in triplicates with Ki values determined from three independent experiments.
CB1R binding: The actual affinity of the 14 candidates was tested in a CB1R competitive binding assay.
In general terms: Loss of bound radioactivity is the signal in a displacement assay; it reports binding, not function.

Data set [2] is described as follows: Tissue levels of antagonists (brain, serum) by LC-MS/MS. The note with it: 1 hour after single dose. The format is in vivo, mice. As for the experimental part: Blood was collected, and the mice were perfused with phosphate buffered saline for 1 min to remove drug from the intravascular space before removing the brain and liver. Drug levels in tissue homogenates and plasma were determined by using LC-MS/MS.

Data set [3] addresses T1, CB1R. Kind of data set: [35S]GTPγS binding, with and without CB1R agonist HU-210. The note with it: mouse brain membranes, compounds at 10 μM, with and without HU-210 (100 nM). The format is biochemical. As for the experimental part:
[^35S]GTPγS binding: Mouse brains (CB1R) or human cell membranes (CB2R) were dissected and P2 membranes prepared and resuspended at ˜2 μg protein/μL in 1 mL assay buffer (50 mM Tris HCl, 9 mM MgCl2, 0.2 mM EGTA, 150 mM NaCl; pH 7.4). Ligand-stimulated [^35S]GTPγS binding was assayed as described previously. Briefly, membranes (10 μg protein) were incubated in assay buffer containing 100 μM GDP, 0.05 nM [^35S]GTPγS, test compounds (HU-210, CP55,940 and tested molecules) at 10 μM, and 1.4 mg/mL fatty acid-free BSA in siliconized glass tubes. Bound ligand was separated from free ligand by vacuum filtration. Non-specific binding was determined using 10 μM GTPS. Basal binding was assayed in the absence of the ligand and in the presence of GDP.
The test was performed for each compound with and without the CB1R agonist HU-210 (100 nM).
On the technique in general: GTPγS is a poorly hydrolysed GTP analogue; its binding reports G protein activation.

The next data set has as its system mice. Kind of data set: Locomotor activity, CB1R-mediated hyperactivity. The format is in vivo. The note with it: 10 mg/kg ip. From the text: Locomotor Activity: Locomotor activity was quantified by the number of disruptions of infrared XYZ beam arrays with a beam spacing of 0.25 cm in the Promethion High-Definition Behavioral Phenotyping System (Sable Instruments, Inc., Las Vegas, Nev., USA).
We next tested whether the reduced brain penetrance of Compound 8/Compound 4 is associated with an attenuation of behavioral effects.

Setting [4] is: separated isomer R, read-out: Ki (μM) R.
Where [5] appears, read: CB1R competitive binding, mouse brain membranes, [3H]CP-55,940, read-out: Ki.
Where [6] appears, read: Mix (not separated), read-out: Ki (μM) Mix.
The mark [7] stands for this setting: CB1R competitive binding, values in text, read-out: CB1R Ki.

SMILES strings stand for the structures. Entries after “also recorded” stand apart in the source; their conditions may differ. Where two headings read alike, the source gives them in different places.

T1 sequence (P47746 whole entry): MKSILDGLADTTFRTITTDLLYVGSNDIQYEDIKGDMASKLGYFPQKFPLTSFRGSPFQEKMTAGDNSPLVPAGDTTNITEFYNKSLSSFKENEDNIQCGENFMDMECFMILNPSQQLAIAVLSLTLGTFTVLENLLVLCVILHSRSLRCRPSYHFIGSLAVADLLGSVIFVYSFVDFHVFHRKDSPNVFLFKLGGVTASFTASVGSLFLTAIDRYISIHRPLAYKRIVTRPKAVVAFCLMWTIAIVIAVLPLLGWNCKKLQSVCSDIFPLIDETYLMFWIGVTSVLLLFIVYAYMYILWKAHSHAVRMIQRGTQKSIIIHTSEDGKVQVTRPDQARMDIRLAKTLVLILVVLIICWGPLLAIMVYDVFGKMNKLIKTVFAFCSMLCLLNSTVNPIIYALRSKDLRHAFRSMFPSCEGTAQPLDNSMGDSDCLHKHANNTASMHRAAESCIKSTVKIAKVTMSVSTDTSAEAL

With `CC1=C(C(=O)Nc2ccccc2C(F)(F)F)C(c2cccc(Oc3ccccc3)c2)NC(=S)N1` (single isomer, unassigned) [Compound 2-R], at CB1R [1] (setting [4]), the Ki (commonly the dissociation constant of the complex between target and ligand, obtained from inhibition or displacement) is 4 µM.
`CC1=C(C(=O)Nc2ccccc2C(F)(F)F)C(c2cccc(Oc3ccccc3)c2)NC(=S)N1` (single isomer, unassigned) [Compound 2-S]: on CB1R [1] (separated isomer S, read-out: Ki (μM) S), the Ki came out at 6.33 µM.
As to `CC(=O)c1cccc(S(=O)(=O)NCCC(=O)NCC(c2ccccc2Cl)c2c[nH]c3ccccc23)c1` (single isomer, unassigned) [Compound 3-R], at CB1R [1] (setting [4]), the Ki worked out at 1.3 µM.
Consider `CC(C)C(NC(=O)c1ccco1)C(=O)NCC(c1ccccc1Cl)c1c[nH]c2ccccc12` (single isomer, unassigned) [Compound 4-RR], for which the inhibitory constant (Ki) on CB1R [1] (separated isomer RR, read-out: Ki (μM) RR) stood at 0.54 µM. Besides, the “brain penetrance (brain levels vs serum levels)” value in data set [2] (mice, 10, 20, 50 mg/kg ip) was “markedly reduced brain penetrance”.
Turning to `CC(C)C(NC(=O)c1ccco1)C(=O)NCC(c1ccccc1Cl)c1c[nH]c2ccccc12` (single isomer, unassigned) [Compound 4-RS], the Ki on CB1R [1] (separated isomer RS, read-out: Ki (μM) RS) is 8.46 µM.
On to `CC(C)C(NC(=O)c1ccco1)C(=O)NCC(c1ccccc1Cl)c1c[nH]c2ccccc12` (single isomer, unassigned) [Compound 4-SR], for which the inhibition constant Ki at CB1R [1] (separated isomer SR, read-out: Ki (μM) SR) was determined as 0.48 µM. Moreover, in data set [2] (mice, 10, 20, 50 mg/kg ip), the “brain penetrance (brain levels vs serum levels)” value is reported as “markedly reduced brain penetrance”.
As to `CC(C)C(NC(=O)c1ccco1)C(=O)NCC(c1ccccc1Cl)c1c[nH]c2ccccc12` (single isomer, unassigned) [Compound 4-SS], the Ki at CB1R [1] (separated isomer SS, read-out: Ki (μM) SS) worked out at 1.66 µM.
Regarding `CC1=C(C(=O)Nc2ccccc2C(F)(F)F)C(c2cccc(Oc3ccccc3)c2)NC(=S)N1` (centres unmarked) [Compound 2], the Ki at CB1R [1] (setting [5]) was found to be 2.1 µM; at CB1R [1] (setting [6]), 3.36 µM. Besides, the “activity (agonism, antagonism, inverse agonism) properties” value at CB1R [3] is “inverse agonists”.
`CC(=O)c1cccc(S(=O)(=O)NCCC(=O)NCC(c2ccccc2Cl)c2c[nH]c3ccccc23)c1` (centres unmarked) [Compound 3]: the results for the Ki at CB1R [1] (setting [5]) and on CB1R [1] (setting [6]) were 1.8 µM and 1.1 µM, respectively.
For the compound `CC(C)C(NC(=O)c1ccco1)C(=O)NCC(c1ccccc1Cl)c1c[nH]c2ccccc12` (centres unmarked) [Compound 4], the Ki was 1.1 µM at CB1R [1] (setting [5]) and 1 µM at CB1R [1] (setting [6]). The “activity (agonism, antagonism, inverse agonism) properties” value at CB1R [3] is “neutral antagonism; also recorded: antagonist”.
As to `CC(NC(=O)Nc1ccccc1)C(=O)NCC(c1ccccc1Cl)c1c[nH]c2ccccc12` (centres unmarked) [Compound 7], the Ki on CB1R [1] (setting [5]) was 3.9 µM.
As to `CC1=C(C(=O)Nc2ccccc2C(F)(F)F)C(c2ccc(OCc3ccccc3)cc2)NC(=S)N1` (centres unmarked) [Compound 8], the Ki on CB1R [1] (setting [5]) is 0.408 µM; on CB1R [1] (setting [7]), about 0.4 µM; on CB1R [1] (setting [6]) it was 0.346 µM. Besides, the “activity (agonism, antagonism, inverse agonism) properties” value on CB1R [3] was “inverse agonists”. Further, the “brain penetrance (brain levels vs serum levels)” value in data set [2] (mice, 3, 10 and 30 mg/kg ip) is reported as “markedly reduced brain penetrance”.
As to `N#Cc1ccc(CC(C#N)(Cc2ccc(C#N)cc2)c2nc(-c3ccc(Cl)c(Cl)c3)cs2)cc1` [Compound 10], the Ki on CB1R [1] (setting [5]) is 0.414 µM; on CB1R [1] (setting [7]) it was about 0.4 µM. Besides, the “activity (agonism, antagonism, inverse agonism) properties” value on CB1R [3] was “positive allosteric modulator (PAM)”.
On to `Cc1ccc(C(=O)C2SC(Nc3ccc(Cl)cc3)=C(C(=O)Nc3ccc(Cl)cc3)C2=N)cc1` (centres unmarked) [Compound 11], for which, at CB1R [1] (setting [5]), the Ki was 1.3 µM. The “activity (agonism, antagonism, inverse agonism) properties” value on CB1R [3] is reported as “inverse agonists”.
Turning to `Cc1ccc(NC(=S)Nc2ccc(C(C)C)cc2)c(S(=O)(=O)Nc2ccc(Cl)cc2)c1` [Compound 12], at CB1R [1] (setting [5]), the Ki is 3.4 µM. The “activity (agonism, antagonism, inverse agonism) properties” value on CB1R [3] is listed as “inverse agonists”.
As for `CC(=O)Nc1ccc(C)c(S(=O)(=O)NCC(c2ccccc2Cl)c2c[nH]c3ccccc23)c1` (centres unmarked) [Compound 13], the Ki at CB1R [1] (setting [5]) stood at 6.5 µM.
For `CC(=O)NC(CC(=O)NCC(c1ccccc1Cl)c1c[nH]c2ccccc12)c1ccc(C)cc1` (centres unmarked) [Compound 14], the values for the Ki at CB1R [1] (setting [5]) and on CB1R [1] (setting [6]) were 0.938 µM and 1.2 µM, respectively. Moreover, the “activity (agonism, antagonism, inverse agonism) properties” value on CB1R [3] is recorded as “inverse agonists”.
For `Cc1c(C(=O)NN2CCCCC2)nn(-c2ccc(Cl)cc2Cl)c1-c1ccc(Cl)cc1` [Rimonabant, reference compound], the “inducing CB1R-mediated hyperactivity (activity profile)” value with mice was “induced a marked increase in the activity profile”.
